Measured values from US20180000085A1, “USE OF PICOLINAMIDE COMPOUNDS WITH FUNGICIDAL ACTIVITY” (DOW AGROSCIENCES LLC, priority 2014, published 2018).

How the values were obtained:
[1] = system: Zymoseptoria tritici; assay: Leaf blotch of wheat (SEPTTR) disease control on wheat seedlings; assay type: in vivo; set-up: key to SEPTTR 1DP, HV activity at 100 ppm (% control rating) / SEPTTR 3DC, HV activity at 100 ppm (% control rating) / SEPTTR disease control, 1DP / SEPTTR disease control, 3DC / SEPTTR 1DP disease control rating, HV activity / SEPTTR 3DC disease control rating, HV activity / SEPTTR 3DC, LV activity at 125.1 g/H (% Control rating) / SEPTTR 1DP, LV activity at 125.1 g/H (% Control rating) / SEPTTR 1DP disease control rating, LV activity at 125.1 g/H / SEPTTR 3DC disease control rating, LV activity at 125.1 g/H / SEPTTR 3DC disease control rating, HV activity at 100 ppm / SEPTTR 1DP disease control rating, HV activity at 100 ppm / HV activity at 100 ppm SEPTTR 3DC (disease control rating) / HV activity at 100 ppm SEPTTR 1DP (disease control rating) / LV activity at 125.1 g/H SEPTTR 1DP (disease control rating) / LV activity at 125.1 g/H SEPTTR 3DC (disease control rating): A: > 80; B: ≤ 80; C: Not Tested; D: No Activity Observed in the Reported Assay; conditions: for SEPTTR 1DP disease control rating, HV activity / SEPTTR 3DC disease control rating, HV activity: HV application at 100 ppm
Protocol: (§1) All fungicides were evaluated using the aforementioned method for their activity vs. all target diseases, unless stated otherwise. Wheat leaf blotch and brown rust activity were also evaluated using track spray applications, in which case the fungicides were formulated as EC formulations, containing 0.1% Trycol 5941 in the spray solutions. Wheat plants (variety Yuma) were grown from seed in a greenhouse in 50% mineral soil/50% soil-less Metro mix until the first leaf was fully emerged, with 7-10 seedlings per pot. These plants were inoculated with an aqueous spore suspension of Zymoseptoria tritici either prior to or after fungicide treatments. After inoculation the plants were kept in 100% relative humidity (one day in a dark dew chamber followed by two to three days in a lighted dew chamber at 20° C.) to permit spores to germinate and infect the leaf. The plants were then transferred to a greenhouse set at 20° C. for disease to develop. When disease symptoms were fully expressed on the 1st leaves of untreated plants, infection levels were assessed on a scale of 0 to 100 percent disease severity. Percent disease control was calculated using the ratio of disease severity on treated plants relative to untreated plants.

[2] = system: Puccinia triticina; assay: Wheat brown rust (PUCCRT) disease control on wheat seedlings; assay type: in vivo; conditions: for PUCCRT 1DP disease control rating, HV activity / PUCCRT 3DC disease control rating, HV activity: HV application at 100 ppm
Protocol: as §1, with “plants. Example B: Evaluation of Fungicidal Activity: Wheat Brown Rust (Puccinia triticina; Synonym: Puccinia recondita f. sp. Tritici; Bayer Code PUCCRT) Wheat plants (variety Yuma) were grown from seed in a greenhouse in 50% mineral soil/50% soil-less Metro mix until the first leaf was fully emerged, with 7-10 seedlings per pot. These plants were inoculated with an aqueous spore suspension of Puccinia triticina either prior to or after fungicide treatments. […] The plants were then transferred to a greenhouse set at 24° C. for disease to develop. Fungicide formulation, application and disease assessment followed the procedures as described in the Example A.” for “plants.”

[3] = 1 Day Protectant, wheat leaf blotch
[4] = 3 Day Curative, wheat leaf blotch
[5] = 1 Day Protectant, wheat brown rust
[6] = 3 Day Curative, wheat brown rust
[7] = high volume application, 100 ppm, 1 day protectant
[8] = high volume application, 100 ppm, 3 day curative
[9] = low volume application, 125.1 g/H, 1 day protectant
[10] = low volume application, 125.1 g/H, 3 day curative
[11] = low volume application, 125.1 g/H, 1 Day Protectant
[12] = low volume application, 125.1 g/H, 3 Day Curative

Compound: COc1ccnc(C(=O)NC(C)C(=O)OC(C)C(Oc2cccc(C(F)(F)F)c2)C(C)C)c1O (stereo not drawn) [Cmpd 433]
- SEPTTR 1DP disease control rating, HV activity [1, 3]: D
- SEPTTR 3DC disease control rating, HV activity [1, 4]: D
- PUCCRT 1DP disease control rating, HV activity [2, 5]: A (> 80)
- PUCCRT 3DC disease control rating, HV activity [2, 6]: A (> 80)

Compound: COc1ccnc(C(=O)N[C@@H](C)C(=O)O[C@@H](C)[C@H](OCC2CC2)C2CC2)c1O [Cmpd 1002]
- SEPTTR 1DP disease control rating, HV activity at 100 ppm [1, 7]: B (≤ 80)
- SEPTTR 3DC disease control rating, HV activity at 100 ppm [1, 8]: B (≤ 80)
- PUCCRT 1DP disease control rating, HV activity at 100 ppm [2, 7]: A (> 80)
- PUCCRT 3DC disease control rating, HV activity at 100 ppm [2, 8]: A (> 80)

Compound: COc1ccnc(C(=O)N[C@@H](C)C(=O)O[C@@H](C)COCC(C)C)c1O [Cmpd 339]
- SEPTTR 1DP disease control rating, HV activity [1, 3]: B (≤ 80)
- SEPTTR 3DC disease control rating, HV activity [1, 4]: D
- PUCCRT 1DP disease control rating, HV activity [2, 5]: B (≤ 80)
- PUCCRT 3DC disease control rating, HV activity [2, 6]: A (> 80)

Compound: COc1ccnc(C(=O)N[C@@H](C)C(=O)O[C@@H](C)[C@@H](Oc2ccccc2)C(C)C)c1O [Cmpd 347]
- SEPTTR 1DP disease control rating, HV activity [1, 3]: B (≤ 80)
- SEPTTR 3DC disease control rating, HV activity [1, 4]: B (≤ 80)
- PUCCRT 1DP disease control rating, HV activity [2, 5]: B (≤ 80)
- PUCCRT 3DC disease control rating, HV activity [2, 6]: A (> 80)

Compound: COc1ccnc(C(=O)NC(C)C(=O)OC(C)C(Oc2ccccc2)c2ccccc2)c1OC(C)=O (stereo not drawn) [Cmpd 870]
- SEPTTR 1DP disease control rating, LV activity at 125.1 g/H [1, 9]: A (> 80)
- SEPTTR 3DC disease control rating, LV activity at 125.1 g/H [1, 10]: A (> 80)
- PUCCRT 1DP disease control rating, LV activity at 125.1 g/H [2, 9]: A (> 80)
- PUCCRT 3DC disease control rating, LV activity at 125.1 g/H [2, 10]: B (≤ 80)

Compound: CCCOC(CC)C(Oc1ccccc1)C(C)OC(=O)C(NC(=O)c1nccc(OC)c1OCOC(C)=O)C(C)C (stereo not drawn) [Cmpd 447]
- SEPTTR 1DP disease control rating, HV activity [1, 3]: A (> 80)
- SEPTTR 3DC disease control rating, HV activity [1, 4]: B (≤ 80)
- PUCCRT 1DP disease control rating, HV activity [2, 5]: A (> 80)
- PUCCRT 3DC disease control rating, HV activity [2, 6]: A (> 80)

Compound: COc1ccnc(C(=O)N[C@@H](C)C(=O)O[C@@H](C)[C@H](OCC2CC2)C(C)(C)C)c1OC(C)=O [Cmpd 1071]
- LV activity at 125.1 g/H SEPTTR 1DP (disease control rating) ([1]; low volume application, 125.1 g/H, 1 Day Protectant, wheat leaf blotch): B (≤ 80)
- LV activity at 125.1 g/H SEPTTR 3DC (disease control rating) ([1]; low volume application, 125.1 g/H, 3 Day Curative, wheat leaf blotch): B (≤ 80)
- LV activity at 125.1 g/H PUCCRT 1DP (disease control rating) ([2]; low volume application, 125.1 g/H, 1 Day Protectant, wheat brown rust): A (> 80)
- LV activity at 125.1 g/H PUCCRT 3DC (disease control rating) ([2]; low volume application, 125.1 g/H, 3 Day Curative, wheat brown rust): A (> 80)

Compound: COc1ccnc(C(=O)N[C@@H](CC(C)C)C(=O)O[C@@H](C)[C@H](Oc2ccc(Cl)cc2Cl)C(C)C)c1OCOC(C)=O [Cmpd 565]
- SEPTTR 1DP, LV activity at 125.1 g/H (% Control rating) [1, 11]: D
- SEPTTR 3DC, LV activity at 125.1 g/H (% Control rating) [1, 12]: B (≤ 80)
- PUCCRT 1DP, LV activity at 125.1 g/H (% Control rating) [2, 11]: B (≤ 80)
- PUCCRT 3DC, LV activity at 125.1 g/H (% Control rating) [2, 12]: B (≤ 80)

Compound: COc1ccnc(C(=O)N[C@@H](C)C(=O)O[C@@H](C)[C@H](Oc2ccc(Cl)cc2Cl)C(C)C)c1OC(C)=O [Cmpd 567]
- SEPTTR 1DP, LV activity at 125.1 g/H (% Control rating) [1, 11]: D
- SEPTTR 3DC, LV activity at 125.1 g/H (% Control rating) [1, 12]: A (> 80)
- PUCCRT 1DP, LV activity at 125.1 g/H (% Control rating) [2, 11]: A (> 80)
- PUCCRT 3DC, LV activity at 125.1 g/H (% Control rating) [2, 12]: A (> 80)
